Experiment: xn = mol fraction of the nth substance listed
Settings: 101 kPa

A viscosity (293.15 K, x2 = 0) of 818 mPa·s, a viscosity (293.15 K, x2 = 0.0992) of 620 mPa·s and a viscosity (293.15 K, x2 = 0.2048) of 478 mPa·s were found for CC(O)C(=O)[O-].C[N+](C)(C)CCO + O in this work. The viscosity (293.15 K, x2 = 0.3008) was 375 mPa·s, the viscosity (293.15 K, x2 = 0.4038) was 259.2 mPa·s and the viscosity (293.15 K, x2 = 0.5858) was 117.8 mPa·s. It also gave a viscosity (293.15 K, x2 = 0.701) of 59.52 mPa·s, a viscosity (298.15 K, x2 = 0.0992) of 433 mPa·s and a viscosity (298.15 K, x2 = 0.2048) of 336.9 mPa·s. For the same compound, the viscosity (298.15 K, x2 = 0.3008) was 266.4 mPa·s, the viscosity (298.15 K, x2 = 0.5026) was 128 mPa·s and the viscosity (298.15 K, x2 = 0.701) was 45.76 mPa·s. For the same compound, the viscosity (298.15 K, x2 = 0.8998) was 6.185 mPa·s, the viscosity (303.15 K, x2 = 0) was 393 mPa·s and the viscosity (303.15 K, x2 = 0.2048) was 242.5 mPa·s. For the same compound, the viscosity (303.15 K, x2 = 0.3008) was 193.6 mPa·s, the viscosity (303.15 K, x2 = 0.4038) was 138.2 mPa·s and the viscosity (303.15 K, x2 = 0.5026) was 95.8 mPa·s. The viscosity (303.15 K, x2 = 0.5858) was 66.88 mPa·s, the viscosity (303.15 K, x2 = 0.701) was 35.7 mPa·s and the viscosity (303.15 K, x2 = 0.7993) was 16.85 mPa·s. For the same compound, the viscosity (303.15 K, x2 = 0.8998) was 5.25 mPa·s, the viscosity (308.15 K, x2 = 0) was 283.9 mPa·s and the viscosity (308.15 K, x2 = 0.0992) was 225.3 mPa·s. It also gave a viscosity (308.15 K, x2 = 0.2048) of 178.9 mPa·s, a viscosity (308.15 K, x2 = 0.4038) of 104.4 mPa·s and a viscosity (308.15 K, x2 = 0.5026) of 73.36 mPa·s. The viscosity (308.15 K, x2 = 0.5858) was 51.91 mPa·s, the viscosity (308.15 K, x2 = 0.701) was 28.36 mPa·s and the viscosity (308.15 K, x2 = 0.7993) was 13.79 mPa·s. The viscosity (313.15 K, x2 = 0) was 209.9 mPa·s, the viscosity (313.15 K, x2 = 0.0992) was 168.3 mPa·s and the viscosity (313.15 K, x2 = 0.2048) was 134.9 mPa·s. The viscosity (313.15 K, x2 = 0.3008) was 107.7 mPa·s, the viscosity (313.15 K, x2 = 0.4038) was 80.45 mPa·s and the viscosity (313.15 K, x2 = 0.5026) was 57.24 mPa·s. It also gave a viscosity (313.15 K, x2 = 0.5858) of 41.04 mPa·s, a viscosity (313.15 K, x2 = 0.701) of 22.9 mPa·s and a viscosity (313.15 K, x2 = 0.7993) of 11.44 mPa·s. It also gave a viscosity (318.15 K, x2 = 0) of 158.7 mPa·s, a viscosity (318.15 K, x2 = 0.0992) of 128.4 mPa·s and a viscosity (318.15 K, x2 = 0.2048) of 103.9 mPa·s. The viscosity (318.15 K, x2 = 0.3008) was 85.2 mPa·s, the viscosity (318.15 K, x2 = 0.4038) was 63.16 mPa·s and the viscosity (318.15 K, x2 = 0.5026) was 45.5 mPa·s. It also gave a viscosity (318.15 K, x2 = 0.5858) of 32.99 mPa·s, a viscosity (318.15 K, x2 = 0.701) of 18.78 mPa·s and a viscosity (318.15 K, x2 = 0.8998) of 3.405 mPa·s. The viscosity (323.15 K, x2 = 0) was 122.3 mPa·s, the viscosity (323.15 K, x2 = 0.0992) was 99.8 mPa·s and the viscosity (323.15 K, x2 = 0.2048) was 81.5 mPa·s. For the same compound, the viscosity (323.15 K, x2 = 0.3008) was 67.27 mPa·s, the viscosity (323.15 K, x2 = 0.4038) was 50.43 mPa·s and the viscosity (323.15 K, x2 = 0.5026) was 36.74 mPa·s. It also gave a viscosity (323.15 K, x2 = 0.5858) of 26.93 mPa·s, a viscosity (323.15 K, x2 = 0.8998) of 3.001 mPa·s and a viscosity (328.15 K, x2 = 0) of 95.9 mPa·s. The viscosity (328.15 K, x2 = 0.0992) was 78.9 mPa·s, the viscosity (328.15 K, x2 = 0.2048) was 64.95 mPa·s and the viscosity (328.15 K, x2 = 0.3008) was 54 mPa·s. For the same compound, the viscosity (328.15 K, x2 = 0.4038) was 40.89 mPa·s, the viscosity (328.15 K, x2 = 0.5026) was 30.11 mPa·s and the viscosity (328.15 K, x2 = 0.5858) was 22.29 mPa·s. It also gave a viscosity (328.15 K, x2 = 0.701) of 13.14 mPa·s, a viscosity (328.15 K, x2 = 0.8998) of 2.666 mPa·s and a viscosity (333.15 K, x2 = 0) of 76.5 mPa·s. For the same compound, the viscosity (333.15 K, x2 = 0.0992) was 63.39 mPa·s, the viscosity (333.15 K, x2 = 0.4038) was 33.61 mPa·s and the viscosity (333.15 K, x2 = 0.5026) was 24.92 mPa·s. For the same compound, the viscosity (333.15 K, x2 = 0.5858) was 18.67 mPa·s, the viscosity (333.15 K, x2 = 0.7993) was 6.101 mPa·s and the viscosity (333.15 K, x2 = 0.8998) was 2.384 mPa·s. For the same compound, the viscosity (338.15 K, x2 = 0) was 61.9 mPa·s, the viscosity (338.15 K, x2 = 0.0992) was 51.63 mPa·s and the viscosity (338.15 K, x2 = 0.2048) was 43.1 mPa·s. The viscosity (338.15 K, x2 = 0.3008) was 36.28 mPa·s, the viscosity (338.15 K, x2 = 0.4038) was 27.97 mPa·s and the viscosity (338.15 K, x2 = 0.5026) was 20.93 mPa·s. For the same compound, the viscosity (338.15 K, x2 = 0.5858) was 15.82 mPa·s, the viscosity (338.15 K, x2 = 0.701) was 9.621 mPa·s and the viscosity (338.15 K, x2 = 0.7993) was 5.323 mPa·s. The viscosity (338.15 K, x2 = 0.8998) was 2.146 mPa·s, the viscosity (343.15 K, x2 = 0) was 50.76 mPa·s and the viscosity (343.15 K, x2 = 0.0992) was 42.6 mPa·s. The viscosity (343.15 K, x2 = 0.2048) was 35.8 mPa·s, the viscosity (343.15 K, x2 = 0.3008) was 30.3 mPa·s and the viscosity (343.15 K, x2 = 0.4038) was 23.55 mPa·s. For the same compound, the viscosity (343.15 K, x2 = 0.5026) was 17.78 mPa·s, the viscosity (343.15 K, x2 = 0.5858) was 13.55 mPa·s and the viscosity (343.15 K, x2 = 0.701) was 8.353 mPa·s. For the same compound, the viscosity (343.15 K, x2 = 0.7993) was 4.692 mPa·s, the viscosity (343.15 K, x2 = 0.8998) was 1.941 mPa·s and the viscosity (348.15 K, x2 = 0) was 42.13 mPa·s. For the same compound, the viscosity (348.15 K, x2 = 0.0992) was 35.55 mPa·s, the viscosity (348.15 K, x2 = 0.2048) was 30.05 mPa·s and the viscosity (348.15 K, x2 = 0.3008) was 25.59 mPa·s. For the same compound, the viscosity (348.15 K, x2 = 0.4038) was 20.05 mPa·s, the viscosity (348.15 K, x2 = 0.5026) was 15.25 mPa·s and the viscosity (348.15 K, x2 = 0.5858) was 11.71 mPa·s. The viscosity (348.15 K, x2 = 0.701) was 7.305 mPa·s, the viscosity (348.15 K, x2 = 0.7993) was 4.171 mPa·s and the viscosity (353.15 K, x2 = 0) was 35.38 mPa·s. For the same compound, the viscosity (353.15 K, x2 = 0.2048) was 25.52 mPa·s, the viscosity (353.15 K, x2 = 0.3008) was 21.82 mPa·s and the viscosity (353.15 K, x2 = 0.4038) was 17.22 mPa·s. For the same compound, the viscosity (353.15 K, x2 = 0.5026) was 13.2 mPa·s, the viscosity (353.15 K, x2 = 0.5858) was 10.2 mPa·s and the viscosity (353.15 K, x2 = 0.701) was 6.438 mPa·s.
